According to ChEMBL document CHEMBL1130739 (Bioorg Med Chem Lett, 1998):

Key:
[1] = Concentration required to inhibit proliferation in a mixture of human lymphocytes using mixed lymphocyte reaction test; type: functional, cell-based
[2] = biological target: Dihydroorotate dehydrogenase (quinone), mitochondrial (Homo sapiens, UniProt Q02127); test: Inhibition of human recombinant dihydroorotate dehydrogenase (DHODase)
Chain of Dihydroorotate dehydrogenase (quinone), mitochondrial (Q02127 whole entry): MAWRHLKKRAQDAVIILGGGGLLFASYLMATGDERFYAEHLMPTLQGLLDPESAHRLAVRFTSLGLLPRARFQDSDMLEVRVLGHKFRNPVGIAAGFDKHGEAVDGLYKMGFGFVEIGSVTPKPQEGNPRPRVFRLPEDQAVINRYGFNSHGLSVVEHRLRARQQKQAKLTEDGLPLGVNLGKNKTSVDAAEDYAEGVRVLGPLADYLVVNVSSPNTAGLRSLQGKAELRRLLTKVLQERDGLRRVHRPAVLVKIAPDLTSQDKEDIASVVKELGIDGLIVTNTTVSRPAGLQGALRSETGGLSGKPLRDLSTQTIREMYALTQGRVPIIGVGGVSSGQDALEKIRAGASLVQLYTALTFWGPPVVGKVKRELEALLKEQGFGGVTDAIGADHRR

With `Cc1c(-c2ccc(-c3ccccc3F)cc2)nc2ccc(F)cc2c1C(=O)O` [BREQUINAR SODIUM] as the compound, how does the IC50 [1] read?
The IC50 was 15 nM.

Which Ki [2] does the source give for `Cc1ccc(-c2ccc3c(c2)CSc2c-3nc3ccc(F)cc3c2C(=O)O)cc1` here?
The Ki was 218 nM.

What about the IC50 [1] of the same compound?
The IC50 was 350 nM.

With `O=C(O)c1c2c(nc3ccc(F)cc13)-c1ccc(-c3ccccc3C(F)(F)F)cc1CC2` as the compound, how does the Ki [2] read?
Its Ki is 40 nM.

What about the IC50 [1] of the same compound?
Its IC50 is 50 nM.

With `O=C(O)c1c2c(nc3ccc(F)cc13)-c1cccc(Oc3ccccc3)c1CC2` as the compound, how does the Ki [2] read?
Its Ki is 962 nM.

What about the IC50 [1] of the same compound?
Its IC50 is > 5000 nM.

Which results are given for `O=C(O)c1c2c(nc3ccc(F)cc13)-c1ccc(-c3nccs3)cc1CC2`?
Ki [2]: > 180 nM; IC50 [1]: > 5000 nM

Which results are given for `O=C(O)c1c2c(nc3ccc(F)cc13)-c1ccc(-c3ccsc3)cc1CC2`?
Ki [2]: 52 nM; IC50 [1]: 170 nM

With `Cc1cccc(-c2ccc3c(c2)SCc2c-3nc3ccc(F)cc3c2C(=O)O)c1` as the compound, how does the Ki [2] read?
The Ki was 37 nM.

What about the IC50 [1] of the same compound?
The IC50 was 14 nM.

For `O=C(O)c1c2c(nc3ccc(F)cc13)-c1ccc(-c3ccccc3)cc1CO2`, which Ki [2] is on record?
The Ki was > 204 nM.

What about the IC50 [1] of the same compound?
Its IC50 is 380 nM.

What does the source list for `O=C(O)c1c2c(nc3ccc(F)cc13)-c1ccc(-c3ccc(C(F)(F)F)cc3)cc1CC2`?
Ki [2]: 370 nM; IC50 [1]: 850 nM

Which Ki [2] does the source give for `O=C(O)c1c2c(nc3ccc(F)cc13)-c1ccc(-c3ccccc3)cc1S(=O)(=O)C2` here?
Its Ki is 139 nM.

And the IC50 [1]?
The IC50 was 8500 nM.

Which results are given for `Cc1cccc(-c2ccc3c(n2)CCc2c-3nc3ccc(F)cc3c2C(=O)O)c1`?
Ki [2]: 81 nM; IC50 [1]: 180 nM

What does the source list for `O=C(O)c1c2c(nc3ccc(F)cc13)-c1ccc(-c3ccoc3)cc1CC2`?
Ki [2]: 190 nM; IC50 [1]: 280 nM

What does the source list for `Cc1ccc(-c2ccc3c(c2)SCc2c-3nc3ccc(F)cc3c2C(=O)O)cc1`?
Ki [2]: 13 nM; IC50 [1]: 50 nM

With `Cc1cccc(-c2ccc3c(c2)CSc2c-3nc3ccc(F)cc3c2C(=O)O)c1` as the compound, how does the Ki [2] read?
Its Ki is 135 nM.

And the IC50 [1]?
The IC50 was 170 nM.

Which Ki [2] does the source give for `COc1ccc(-c2ccc3c(c2)CCc2c-3nc3ccc(F)cc3c2C(=O)O)cc1` here?
Its Ki is 55 nM.

What about the IC50 [1] of the same compound?
The IC50 was 60 nM.

Which results are given for `O=C(O)c1c2c(nc3ccc(F)cc13)-c1ccc(-c3ccccc3F)cc1CC2`?
Ki [2]: 34 nM; IC50 [1]: 40 nM

With `O=C(O)c1c2c(nc3ccc(F)cc13)-c1ccc(-c3ccccc3)cc1[S+]([O-])C2` (stereo unspecified) as the compound, how does the Ki [2] read?
The Ki was 206 nM.

What about the IC50 [1] of the same compound?
Its IC50 is 240 nM.

With `Cc1ccccc1-c1ccc2c(c1)SCc1c-2nc2ccc(F)cc2c1C(=O)O` as the compound, how does the Ki [2] read?
Its Ki is 27 nM.

What about the IC50 [1] of the same compound?
The IC50 was 0.6 nM.

For `O=C(O)c1c2c(nc3ccc(F)cc13)-c1cnc(-c3ccccc3)nc1CC2`, which Ki [2] is on record?
The Ki was 380 nM.

And the IC50 [1]?
The IC50 was 600 nM.

For `Cc1cccc(-c2ccc3c(c2)CCc2c-3nc3ccc(F)cc3c2C(=O)O)c1`, which Ki [2] is on record?
Its Ki is 59 nM.

What about the IC50 [1] of the same compound?
Its IC50 is 60 nM.

Which Ki [2] does the source give for `Cc1ccccc1-c1ccc2c(c1)CSc1c-2nc2ccc(F)cc2c1C(=O)O` here?
Its Ki is 25 nM.

What about the IC50 [1] of the same compound?
The IC50 was 65 nM.

Which results are given for `Cc1ccc(-c2ccc3c(c2)CCc2c-3nc3ccc(F)cc3c2C(=O)O)cc1`?
Ki [2]: 40 nM; IC50 [1]: 28 nM

Which Ki [2] does the source give for `COc1ccccc1-c1ccc2c(c1)CCc1c-2nc2ccc(F)cc2c1C(=O)O` here?
Its Ki is 20 nM.

What about the IC50 [1] of the same compound?
The IC50 was 50 nM.

With `COc1cccc(-c2ccc3c(n2)CCc2c-3nc3ccc(F)cc3c2C(=O)O)c1` as the compound, how does the Ki [2] read?
The Ki was 160 nM.

And the IC50 [1]?
The IC50 was 300 nM.

With `O=C(O)c1c2c(nc3ccc(F)cc13)-c1cc(-c3ccccc3)ccc1CC2` as the compound, how does the Ki [2] read?
The Ki was > 1000 nM.

And the IC50 [1]?
The IC50 was > 5000 nM.

Which Ki [2] does the source give for `O=C(O)c1c2c(nc3ccc(F)cc13)-c1ccc(-c3ccccc3)nc1CC2` here?
Its Ki is 409 nM.

And the IC50 [1]?
The IC50 was 100 nM.

For `COc1cccc(-c2ccc3c(c2)CCc2c-3nc3ccc(F)cc3c2C(=O)O)c1`, which Ki [2] is on record?
The Ki was 25 nM.

And the IC50 [1]?
The IC50 was 10 nM.

For `O=C(O)c1c2c(nc3ccc(F)cc13)-c1sc(-c3ccccc3)cc1CC2`, which Ki [2] is on record?
Its Ki is > 182 nM.

And the IC50 [1]?
The IC50 was > 10000 nM.

Which results are given for `O=C(O)c1c2c(nc3ccc(C(F)(F)F)cc13)-c1ccc(-c3ccccc3)cc1CC2`?
Ki [2]: 31 nM; IC50 [1]: 52 nM

With `O=C(O)c1c2c(nc3ccc(F)cc13)-c1ccc(-c3ccccc3)cc1OC2` as the compound, how does the Ki [2] read?
The Ki was 48 nM.

What about the IC50 [1] of the same compound?
The IC50 was 220 nM.

Which Ki [2] does the source give for `Cc1ccccc1-c1ccc2c(c1)CCc1c-2nc2ccc(F)cc2c1C(=O)O` here?
Its Ki is 10 nM.

And the IC50 [1]?
The IC50 was 30 nM.

For `O=C(O)c1c2c(nc3ccc(F)cc13)-c1cccc(-c3ccccc3)c1CC2`, which Ki [2] is on record?
The Ki was 300 nM.

What about the IC50 [1] of the same compound?
Its IC50 is > 5000 nM.

Which Ki [2] does the source give for `O=C(O)c1c2c(nc3ccc(F)cc13)-c1ccc(-c3cccc(C(F)(F)F)c3)cc1CC2` here?
Its Ki is 43 nM.

What about the IC50 [1] of the same compound?
Its IC50 is 18 nM.

With `O=C(O)c1c2c(nc3ccc(F)cc13)-c1ccc(-c3ccccc3)cc1CS2` as the compound, how does the Ki [2] read?
The Ki was 170 nM.

And the IC50 [1]?
The IC50 was 310 nM.

Which results are given for `O=C(O)c1c2c(nc3ccc(F)cc13)-c1ccc(-c3ccccc3)cc1SC2`?
Ki [2]: 17 nM; IC50 [1]: 16 nM

For `O=C(O)c1c2c(nc3ccc(F)cc13)-c1ccc(-c3ccccc3)cc1CC2`, which Ki [2] is on record?
The Ki was 8.3 nM.

What about the IC50 [1] of the same compound?
Its IC50 is 30 nM.
